This passage reports IC50 results from US7745450B2, “Pyrazolo[4,3-d]pyrimidines, processes for their preparation and methods for therapy” (Institute of Experimental Botany, priority 2002, dated 2010).

Where two headings read alike, the source gives them in different places. Bounds are passed on as bounds.

In one assay the target is IκB-α kinase. The assay can be described thus: IκB-α kinase inhibition, in vitro kinase assay. The assay is classed as biochemical.
For a further assay, the target named is cdk1/cyclin B (CDC2) (Homo sapiens, UniProt P06493). The assay can be described thus: CDK inhibition assay, cdk1/cyclin B (CDC2) kinase, histone phosphorylation. In kind it is biochemical. As for the experimental part:
Selected compounds were tested for cdk1/cyclin B and cdk2/cyclin E inhibitory activity to determine the basic relationships between their interaction energy of docked complex and the inhibitory activity. Cdk2/cyclin E complex was produced in SIP insect cells co-infected with appropriate baculoviral construct. The cells were harvested 70 hours post infection in lysis buffer (50 mM Tris 7.4 pH, 150 mM NaCl, 5 mM EDTA, 20 mM NaF, 1% Tween 20, protease inhibitors) for 30 min on ice and the soluble fraction was recovered by centrifugation at 14.000 g for 10 min. The protein extract was stored at −80° C. until use. The final point test system for kinase activity measurement was used to carry out experiments on the kinetics under linear conditions. The assay mixture contained 1 mg/ml histone (Sigma Type III-S), 15 μM ATP, 0.2 μCi [γ-^32P] ATP and tested compound in a final volume of 20 μl, all in reaction buffer: 50 mM Hepes 7.4 pH, 10 mM MgCl2, 5 mM EGTA, 10 mM 2-glycerolphosphate, 1 mM NaF, 1 mM DTT and protease inhibitors. […] The measurement of kinase inhibition employed the digital imaging analyzer BAS 1800. The kinase activity was expressed as a percentage of maximum activity and the IC50 value was determined by graphic analysis. The kinase activity is expressed as a percentage of maximum activity, the apparent inhibition constants are determined by graphic analysis from dose-response curves presented on FIG. 1.

The subject of assay [1] is Cytokinin-dependent tobacco callus Nicotiana tabacum L. cv. Wisconsins 38. Nature of the assay: Tobacco callus bioassay for cytotoxicity (herbicidal activity). The assay is classed as cell-based. The method, then: The novel compounds have also been tested in tobacco callus bioassay for cytotoxicity (herbicidal activity) and induction of cell death. The compounds to be tested were dissolved in dimethylsulfoxide (DMSO) and the solution brought up to 10^−3 M with distilled water. […] Cytokinin-dependent tobacco callus Nicotiana tabacum L. cv. Wisconsins 38 Murashige-Skoog medium, containing per 1 liter: 4 μmol nicotinic acid, 2.4 μmol pyridoxine hydrochloride, 1.2 μmol thiamine, 26.6 μmol glycine, 1.37 μmol glutamine, 1.8 μmol myo.inositol, 30 g of sucrose, 8 g of agar, […] α-naphthylacetic acid and 0.5 μmol 6-benzylaminopurine. Sub cultivation was carried out every three weeks. Fourteen days before the bioassay, the callus tissue was transferred to the media without 6-benzylaminopurine. Compounds were tested with two different concentrations of 6-benzylaminopurine (10^−5 M and 10^−6 M). Inhibitory growth activity was determined from the increase in fresh callus weight after four weeks of cultivation. Five replicates were prepared for each concentration tested and the entire test was repeated at least twice.

Where [2] appears, read: Nicotiana tabacum, 672 h, read-out: 10^−5 M BAP IC50, 10^−5 M 6-benzylaminopurine, four weeks.
Where [3] appears, read: Nicotiana tabacum, 672 h, read-out: 10^−6 M BAP IC50, 10^−6 M 6-benzylaminopurine, four weeks.

cdk1/cyclin B (CDC2), sequence (P06493 whole entry, species assumed): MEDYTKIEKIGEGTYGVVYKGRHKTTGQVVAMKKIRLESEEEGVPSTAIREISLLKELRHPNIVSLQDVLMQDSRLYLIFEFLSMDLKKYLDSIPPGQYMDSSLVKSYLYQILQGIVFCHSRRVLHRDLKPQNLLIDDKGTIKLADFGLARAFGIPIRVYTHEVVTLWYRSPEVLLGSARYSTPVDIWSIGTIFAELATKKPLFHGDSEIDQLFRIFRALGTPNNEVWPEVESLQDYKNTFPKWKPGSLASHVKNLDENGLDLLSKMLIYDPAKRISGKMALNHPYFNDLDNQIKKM
cdk1/cyclin B (CDC2), sequence (P14635 whole entry partner, species assumed): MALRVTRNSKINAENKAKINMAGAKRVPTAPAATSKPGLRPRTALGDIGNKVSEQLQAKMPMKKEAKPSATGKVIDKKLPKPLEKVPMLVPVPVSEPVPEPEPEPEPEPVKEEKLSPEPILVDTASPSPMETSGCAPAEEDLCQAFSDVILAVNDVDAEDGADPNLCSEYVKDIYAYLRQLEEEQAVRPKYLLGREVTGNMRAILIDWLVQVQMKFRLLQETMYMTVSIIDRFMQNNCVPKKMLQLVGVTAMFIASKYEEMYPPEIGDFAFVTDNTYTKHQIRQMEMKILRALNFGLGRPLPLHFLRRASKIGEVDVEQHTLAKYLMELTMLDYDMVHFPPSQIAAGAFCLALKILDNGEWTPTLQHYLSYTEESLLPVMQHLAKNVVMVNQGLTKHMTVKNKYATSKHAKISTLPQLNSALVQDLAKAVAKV

For `Cc1n[nH]c2c(NCc3ccccc3)nc(NC3CCC(N)CC3)nc12` (stereo not shown), the IC50 against IκB-α kinase was 50 nM; against cdk1/cyclin B (CDC2) it was 20 nM; in assay [1] (setting [2]), above 50000 nM; in assay [1] (setting [3]), 43000 nM.
With `CC[C@H](CO)Nc1nc(NCc2cccc(OC)c2O)c2[nH]nc(C(C)C)c2n1`, the IC50 is 12 nM on IκB-α kinase, 4 nM against cdk1/cyclin B (CDC2), above 50000 nM in assay [1] (setting [2]) and 14800 nM in assay [1] (setting [3]).
The like results for `CC(C)c1n[nH]c2c(Nc3cccc(Cl)c3)nc(NC3CCC(N)CC3)nc12` (stereo not shown) were, in that order, 12 nM, 1 nM, above 50000 nM and 25000 nM.
For `Cc1n[nH]c2c(NCc3ccccc3)nc(NC3CCCCC3N)nc12` (stereo not shown), the IC50 at IκB-α kinase is 90 nM; against cdk1/cyclin B (CDC2), 30 nM; in assay [1] (setting [2]) it was above 50000 nM; in assay [1] (setting [3]), 48000 nM.
The like results for `CC[C@H](CO)Nc1nc(NCc2cccc(OC(C)=O)c2)c2[nH]nc(C(C)C)c2n1` were, in that order, 400 nM, 70 nM, above 50000 nM and 28700 nM.
Regarding `CC(C)c1n[nH]c2c(Nc3cccc(Cl)c3)nc(NCCCN)nc12`, the IC50 was 80 nM on IκB-α kinase, 20 nM at cdk1/cyclin B (CDC2), above 50000 nM in assay [1] (setting [2]) and 45000 nM in assay [1] (setting [3]).
On to `CC(C)c1n[nH]c2c(Nc3ccc(C(=O)O)c(Cl)c3)nc(N[C@@H](CO)C(C)C)nc12`, for which the IC50 is 2 nM at IκB-α kinase, 0.9 nM on cdk1/cyclin B (CDC2), 26000 nM in assay [1] (setting [2]) and 1400 nM in assay [1] (setting [3]).
Take `CC(C)c1n[nH]c2c(NCc3c(N)cccc3Cl)nc(N[C@@H](CO)C(C)C)nc12`: the IC50 against IκB-α kinase was found to be 2 nM; against cdk1/cyclin B (CDC2) it was 0.9 nM; in assay [1] (setting [2]), 38000 nM; in assay [1] (setting [3]) it was 3700 nM.
For the compound `CC(C)c1n[nH]c2c(Nc3ccc(Cl)c(N)c3)nc(N[C@@H](CO)C(C)C)nc12`, the IC50 on IκB-α kinase was 2 nM; at cdk1/cyclin B (CDC2) it was 1 nM; in assay [1] (setting [2]) it was 25000 nM; in assay [1] (setting [3]) it was 1800 nM.
`CC[C@H](CO)Nc1nc(NCc2ccccc2)c2[nH]nc(C(C)C)c2n1`: the IC50 is 30 nM against IκB-α kinase, 10 nM on cdk1/cyclin B (CDC2), above 50000 nM in assay [1] (setting [2]) and 28000 nM in assay [1] (setting [3]).
Taken in the same sequence, the figures for `CC(C)c1n[nH]c2c(Nc3ccc(N)c(Cl)c3)nc(N[C@@H](CO)C(C)C)nc12` were 3 nM, 2 nM, 16000 nM and 900 nM.
`CC(C)c1n[nH]c2c(NCc3ccc(Cl)c(N)c3)nc(N[C@@H](CO)C(C)C)nc12`: the IC50 was 3 nM at IκB-α kinase, 2 nM at cdk1/cyclin B (CDC2), above 50000 nM in assay [1] (setting [2]) and 19400 nM in assay [1] (setting [3]).
Taken in the same sequence, the figures for `CC[C@H](CO)Nc1nc(Nc2cc(N)cc(Cl)c2)c2[nH]nc(C(C)C)c2n1` were 20 nM, 4 nM, 36000 nM and 2800 nM.
As for `Cc1n[nH]c2c(NCc3ccccc3)nc(N[C@@H](CO)C(C)C)nc12`, the half-inhibitory concentration (IC50) on IκB-α kinase was 20 nM; on cdk1/cyclin B (CDC2) it was 10 nM; in assay [1] (setting [2]) it was above 50000 nM; in assay [1] (setting [3]), 28000 nM.
For the compound `CC[C@H](CO)Nc1nc(Nc2ccc(N)c(Cl)c2)c2[nH]nc(C(C)C)c2n1`, the IC50 is 9 nM against IκB-α kinase, 2 nM against cdk1/cyclin B (CDC2), 48000 nM in assay [1] (setting [2]) and 8700 nM in assay [1] (setting [3]).
Taken in the same sequence, the figures for `CC(C)c1n[nH]c2c(Nc3cccc(Cl)c3)nc(N[C@@H](CO)C(C)C)nc12` were 9 nM, 4 nM, above 50000 nM and 11000 nM.
Taken in the same sequence, the figures for `CC(C)c1n[nH]c2c(Nc3ccc(O)c(C(=O)O)c3)nc(N[C@@H](CO)C(C)C)nc12` were 1 nM, 0.4 nM, 18000 nM and 1200 nM.
Take `CC(C)c1n[nH]c2c(NCc3ccccc3)nc(N[C@@H](CO)C(C)C)nc12`: the IC50 was 10 nM against IκB-α kinase, 4 nM against cdk1/cyclin B (CDC2), above 50000 nM in assay [1] (setting [2]) and 14000 nM in assay [1] (setting [3]).
Take `CC[C@H](CO)Nc1nc(NCc2ccccc2OC(C)=O)c2[nH]nc(C(C)C)c2n1`: the IC50 on IκB-α kinase was found to be 200 nM; at cdk1/cyclin B (CDC2), 100 nM; in assay [1] (setting [2]) it was 45000 nM; in assay [1] (setting [3]), 12400 nM.
The like results for `CC[C@H](CO)Nc1nc(NCc2c(N)cccc2Cl)c2[nH]nc(C(C)C)c2n1` were, in that order, 3.5 nM, 12 nM, above 50000 nM and 29700 nM.
Take `CC(C)c1n[nH]c2c(NCc3ccc(Cl)c(N)c3N)nc(N[C@@H](CO)C(C)C)nc12`: the IC50 on IκB-α kinase amounted to 40 nM; against cdk1/cyclin B (CDC2) it was 20 nM; in assay [1] (setting [2]) it was 15600 nM; in assay [1] (setting [3]) it was 400 nM.
Take `Cc1cccc(CNc2nc(N[C@@H](CO)C(C)C)nc3c(C(C)C)n[nH]c23)c1O`: the IC50 was 2 nM against IκB-α kinase, 1 nM against cdk1/cyclin B (CDC2), above 50000 nM in assay [1] (setting [2]) and 10700 nM in assay [1] (setting [3]).
For the compound `CC[C@H](CO)Nc1nc(NCc2cccc(Cl)c2O)c2[nH]nc(C(C)C)c2n1`, the IC50 at IκB-α kinase was 12 nM; at cdk1/cyclin B (CDC2) it was 7 nM; in assay [1] (setting [2]), 46000 nM; in assay [1] (setting [3]) it was 6700 nM.
As to `CC(C)c1n[nH]c2c(NCc3ccccc3)nc(NC3CCC(N)CC3)nc12` (stereo not shown) [Compound 268, 3-isopropyl-5-(4-aminocyclohexylamino)-7-benzylamino-pyrazolo[4,3-d]pyrimidine], the IC50 is 5 nM on cdk1/cyclin B (CDC2), above 50000 nM in assay [1] (setting [2]) and 32000 nM in assay [1] (setting [3]).
Take `CC[C@H](CO)Nc1nc(Nc2cccc(Cl)c2)c2[nH]nc(C(C)C)c2n1`: the IC50 was 4 nM on cdk1/cyclin B (CDC2); 45000 nM in assay [1] (setting [2]); above 50000 nM in assay [1] (read-out: 10^−5 M BAP IC50, 10^−5 M 6-benzylaminopurine, four weeks).
As to `CC(C)c1n[nH]c2c(N(C)CCc3ccc(O)c(O)c3)nc(N[C@@H](CO)C(C)C)nc12`, the IC50 against IκB-α kinase is 150 nM; at cdk1/cyclin B (CDC2), 90 nM.
As for `CC(C)c1n[nH]c2c(NCc3cc(O)c(Cl)cc3O)nc(N[C@@H](CO)C(C)C)nc12`, the IC50 worked out at 1 nM against IκB-α kinase and 0.8 nM on cdk1/cyclin B (CDC2).
Consider `CC(=O)c1cccc(CNc2nc(NCCO)nc3c(C)n[nH]c23)c1`, for which the IC50 is 90 nM at IκB-α kinase and 40 nM against cdk1/cyclin B (CDC2).
`Cc1n[nH]c2c(Nc3cccc(Cl)c3)nc(NCCO)nc12`: the figures for the IC50 against IκB-α kinase and against cdk1/cyclin B (CDC2) were 90 nM and 40 nM, respectively.
The like results for `CC(=O)Oc1ccccc1CNc1nc(NCCO)nc2c(C)n[nH]c12` were, in that order, 1200 nM and 500 nM.
Taken in the same sequence, the figures for `CC(C)c1n[nH]c2c(Nc3cccc(Cl)c3)nc(NCCCO)nc12` were 200 nM and 80 nM.
Consider `CC(C)c1n[nH]c2c(NCc3ccc(O)c(O)c3)nc(N[C@@H](CO)C(C)C)nc12`, for which the IC50 is 310 nM against IκB-α kinase and 150 nM on cdk1/cyclin B (CDC2).
Take `COc1cc(O)c(CNc2nc(N[C@@H](CO)C(C)C)nc3c(C(C)C)n[nH]c23)cc1O`: the values for the IC50 on IκB-α kinase and on cdk1/cyclin B (CDC2) were 1.5 nM and 0.6 nM, respectively.
For the compound `Cc1n[nH]c2c(Nc3cc(N)cc(Cl)c3)nc(NCCO)nc12`, the IC50 came to 20 nM against IκB-α kinase and 10 nM at cdk1/cyclin B (CDC2).
As for `CC[C@H](CO)Nc1nc(NCc2cccc(C(C)=O)c2)c2[nH]nc(C(C)C)c2n1`, the IC50 amounted to 40 nM against IκB-α kinase and 10 nM on cdk1/cyclin B (CDC2).
Consider `CC(C)c1n[nH]c2c(N(C)Cc3ccc(O)c(O)c3)nc(N[C@@H](CO)C(C)C)nc12`, for which the IC50 on IκB-α kinase came out at 110 nM; on cdk1/cyclin B (CDC2) it was 30 nM.
The like results for `Cc1n[nH]c2c(Nc3ccc(O)c(C(=O)O)c3)nc(NCCO)nc12` were, in that order, 50 nM and 20 nM.
The like results for `CC(C)c1n[nH]c2c(NCc3c(O)cc(Cl)cc3O)nc(N[C@@H](CO)C(C)C)nc12` were, in that order, 2 nM and 1 nM.
As to `Cc1n[nH]c2c(NCc3ccccc3)nc(NCCO)nc12` [2-hydroxyethylamino; benzylamino; methyl], the figures for the IC50 at IκB-α kinase and against cdk1/cyclin B (CDC2) were 9300 nM and 4000 nM, respectively.
For `Cc1n[nH]c2c(NCc3c(O)cc(Cl)cc3O)nc(NCCO)nc12`, the IC50 against IκB-α kinase amounted to 12 nM; on cdk1/cyclin B (CDC2), 5 nM.
The like results for `Cc1n[nH]c2c(Nc3ccc(Br)cc3)nc(NCCO)nc12` were, in that order, 20 nM and 8 nM.
